Drawing on US20240307382A1, “MODULATORS OF THE INTEGRATED STRESS PATHWAY” (Calico Life Sciences LLC, priority 2017, published 2024), this text covers EC50 for 30 compounds.

The test system of this experiment is HEK293T cells carrying the ATF4 luciferase reporter. Put plainly: ATF4-Luc assay (ATF4 luciferase reporter, tunicamycin-treated cells). In kind it is cell-based. To be noted: Homo sapiens, HEK-293T, 1 μg/mL tunicamycin, 7 hours. Put shortly: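 A stable HEK293T reporter line was made by placing the full-length human ATF4 5′-UTR ahead of a firefly luciferase sequence without its start methionine, delivered by retroviral transduction and puromycin selection. Cells were seeded at 30,000 per well in polylysine-coated 384-well plates, exposed next day to 1 μg/mL tunicamycin plus compound for 7 hours, and luminescence was read with One Glo.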
The term EC50 denotes the concentration needed to bring the measured effect to its halfway point. Regarding `N#Cc1ccc(C(=O)NC23CCC(NC(=O)COc4ccc(Cl)c(Cl)c4)(CC2)[C@@H](O)C3)nc1` [Compound 1033, 5-cyano-N-{(3S)-4-[2-(3,4-dichlorophenoxy)acetamido]-3-hydroxybicyclo[2.2.2]octan-1-yl}pyridine-2-carboxamide], the EC50 is less than 50 nM.

Turning to `Cc1nc(C(=O)NC23CCC(NC(=O)COc4ccc(Cl)c(Cl)c4)(CC2)[C@@H](O)C3)ccc1C#N` [Compound 1034, 5-cyano-N-{(3S)-4-[2-(3,4-dichlorophenoxy)acetamido]-3-hydroxybicyclo[2.2.2]octan-1-yl}-6-methylpyridine-2-carboxamide], the EC50 was less than 50 nM.

As to `O=C(COc1ccc(Cl)c(F)c1)NC12CCC(NC(=O)c3ncc(-c4ccccc4)s3)(CC1)C[C@@H]2O` [Compound 1035, N-{(3S)-4-[2-(4-chloro-3-fluorophenoxy)acetamido]-3-hydroxybicyclo[2.2.2]octan-1-yl}-5-phenyl-1,3-thiazole-2-carboxamide], the EC50 was less than 50 nM.

Turning to `O=C(COc1ccc(Cl)c(F)c1)NC12CCC(NC(=O)c3coc(-c4ccccc4)n3)(CC1)C[C@@H]2O` [Compound 1036, N-{(3S)-4-[2-(4-chloro-3-fluorophenoxy)acetamido]-3-hydroxybicyclo[2.2.2]octan-1-yl}-2-phenyl-1,3-oxazole-4-carboxamide], the EC50 is less than 50 nM.

On to `Cn1nc(C(=O)NC23CCC(NC(=O)COc4ccc(Cl)c(F)c4)(CC2)[C@@H](O)C3)cc1-c1ccccc1` [Compound 1037, N-{(3S)-4-[2-(4-chloro-3-fluorophenoxy)acetamido]-3-hydroxybicyclo[2.2.2]octan-1-yl}-1-methyl-5-phenyl-1H-pyrazole-3-carboxamide], for which the EC50 is less than 50 nM.

As to `O=C(COc1ccc(Cl)c(F)c1)NC12CCC(NC(=O)c3nc(-c4ccccc4)cs3)(CC1)C[C@@H]2O` [Compound 1038, N-{(3S)-4-[2-(4-chloro-3-fluorophenoxy)acetamido]-3-hydroxybicyclo[2.2.2]octan-1-yl}-4-phenyl-1,3-thiazole-2-carboxamide], the EC50 is less than 50 nM.

Turning to `O=C(COc1ccc(Cl)c(F)c1)NC12CCC(NC(=O)c3cc(-c4ccccc4)on3)(CC1)C[C@@H]2O` [Compound 1039, N-{(3S)-4-[2-(4-chloro-3-fluorophenoxy)acetamido]-3-hydroxybicyclo[2.2.2]octan-1-yl}-5-phenyl-1,2-oxazole-3-carboxamide], the EC50 was less than 50 nM.

Regarding `O=C(COc1ccc(Cl)c(F)c1)NC12CCC(NC(=O)c3csc(-c4ccccc4)n3)(CC1)C[C@@H]2O` [Compound 1040, N-{(3S)-4-[2-(4-chloro-3-fluorophenoxy)acetamido]-3-hydroxybicyclo[2.2.2]octan-1-yl}-2-phenyl-1,3-thiazole-4-carboxamide], the EC50 was less than 50 nM.

On to `O=C(COc1ccc(Cl)c(Cl)c1)NC12CCC(NC(=O)c3cnc(-c4ccccc4)o3)(CC1)C[C@@H]2O` [Compound 1041, N-{(3S)-4-[2-(3,4-dichlorophenoxy)acetamido]-3-hydroxybicyclo[2.2.2]octan-1-yl}-2-phenyl-1,3-oxazole-5-carboxamide], for which the EC50 was less than 50 nM.

For `O=C(COc1ccc(Cl)c(F)c1)NC12CC(NC(=O)c3cnc(-c4cccnc4)o3)(C1)C2` [Compound 1042, N-{3-[2-(4-chloro-3-fluorophenoxy)acetamido]bicyclo[1.1.1]pentan-1-yl}-2-(pyridin-3-yl)-1,3-oxazole-5-carboxamide], the EC50 is less than 50 nM.

As for `O=C(COc1ccc(Cl)c(Cl)c1)NC12CC(NC(=O)c3cnc(C(F)(F)F)o3)(C1)C2` [Compound 1043, N-{3-[2-(3,4-dichlorophenoxy)acetamido]bicyclo[1.1.1]pentan-1-yl}-2-(trifluoromethyl)-1,3-oxazole-5-carboxamide], the EC50 lay in the range of 50 to 250 nM.

Take `O=C(COc1ccc(Cl)c(F)c1)NC12CC(NC(=O)c3cnc(C(F)(F)F)o3)(C1)C2` [Compound 1044, N-{3-[2-(4-chloro-3-fluorophenoxy)acetamido]bicyclo[1.1.1]pentan-1-yl}-2-(trifluoromethyl)-1,3-oxazole-5-carboxamide]: the EC50 lay in the range of 50 to 250 nM.

In the case of `O=C(COc1ccc(Cl)c(F)c1)NC12CC(Nc3cncc(C(F)(F)F)c3)(C1)C2` [Compound 1045, 2-(4-chloro-3-fluorophenoxy)-N-(3-{[5-(trifluoromethyl)pyridin-3-yl]amino}bicyclo[1.1.1]pentan-1-yl)acetamide], the EC50 was greater than 2000 nM.

With `Cn1nnc(-c2ccc(NC34CC(NC(=O)COc5ccc(Cl)c(F)c5)(C3)C4)cn2)n1` [Compound 1046, 2-(4-chloro-3-fluorophenoxy)-N-(3-{[6-(2-methyl-2H-tetrazol-5-yl)pyridin-3-yl]amino}bicyclo[1.1.1]pentan-1-yl)acetamide], the EC50 was greater than 2000 nM.

Take `O=C(COc1ccc(Cl)c(F)c1)NC12CCC(NC(=O)c3ccc4c(c3)OC(F)(F)O4)(CC1)NC2=O` [Compound 1047, N-{4-[2-(4-chloro-3-fluorophenoxy)acetamido]-3-oxo-2-azabicyclo[2.2.2]octan-1-yl}-2,2-difluoro-2H-1,3-benzodioxole-5-carboxamide]: the EC50 is greater than 2000 nM.

As to `O=C(COc1ccc(Cl)c(Cl)c1)NC12CCC(NC(=O)c3cc(C(F)F)no3)(CC1)NC2=O` [Compound 1048, N-{4-[2-(3,4-dichlorophenoxy)acetamido]-3-oxo-2-azabicyclo[2.2.2]octan-1-yl}-3-(difluoromethyl)-1,2-oxazole-5-carboxamide], the EC50 is greater than 2000 nM.

In the case of `Cc1cc(C(=O)NC23CCC(NC(=O)COc4ccc(Cl)c(Cl)c4)(CC2)C(=O)N3)on1` [Compound 1049, N-{4-[2-(3,4-dichlorophenoxy)acetamido]-3-oxo-2-azabicyclo[2.2.2]octan-1-yl}-3-methyl-1,2-oxazole-5-carboxamide], the EC50 was greater than 2000 nM.

For `O=C(COc1ccc(Cl)c(F)c1)NC12CCC(NC(=O)c3cc(C(F)F)no3)(CC1)NC2=O` [Compound 1050, N-{4-[2-(4-chloro-3-fluorophenoxy)acetamido]-3-oxo-2-azabicyclo[2.2.2]octan-1-yl}-3-(difluoromethyl)-1,2-oxazole-5-carboxamide], the EC50 was greater than 2000 nM.

As to `Cc1cc(C(=O)NC23CCC(NC(=O)COc4ccc(Cl)c(F)c4)(CC2)C(=O)N3)on1` [Compound 1051, N-{4-[2-(4-chloro-3-fluorophenoxy)acetamido]-3-oxo-2-azabicyclo[2.2.2]octan-1-yl}-3-methyl-1,2-oxazole-5-carboxamide], the EC50 is greater than 2000 nM.

As for `O=C(COc1ccc(Cl)c(Cl)c1)NC12CCC(NC(=O)c3coc(C(F)F)n3)(CC1)C[C@@H]2O` [Compound 1052, N-{(3S)-4-[2-(3,4-dichlorophenoxy)acetamido]-3-hydroxybicyclo[2.2.2]octan-1-yl}-2-(difluoromethyl)-1,3-oxazole-4-carboxamide], the EC50 is less than 50 nM.

On to `O=C(NC12CCC(NC(=O)c3cnc(-c4ccccc4)o3)(CC1)[C@@H](O)C2)c1cnc(-c2ccccc2)o1` [Compound 1053, N,N′-[(2S)-2-hydroxybicyclo[2.2.2]octane-1,4-diyl]bis(2-phenyl-1,3-oxazole-5-carboxamide)], for which the EC50 was less than 50 nM.

For `O=C(NC12CCC(NC(=O)c3cnc(-c4ccccc4)o3)(CC1)C2)c1cnc(-c2ccccc2)o1` [Compound 1055, N,N′-(bicyclo[2.2.1]heptane-1,4-diyl)bis(2-phenyl-1,3-oxazole-5-carboxamide)], the EC50 lay within 50 to 250 nM.

`Cc1cnc(C(=O)NC23CC(NC(=O)c4cnc(-c5ccccc5)o4)(C2)C3)cn1` [Compound 1056, 5-methyl-N-{3-[(2-phenyl-1,3-oxazole-5-carbonyl)amino]bicyclo[1.1.1]pentan-1-yl}pyrazine-2-carboxamide]: the EC50 lay within 250 to 1000 nM.

As to `O=C(NC12CC(NC(=O)c3cnc(-c4ccccc4)o3)(C1)C2)c1cnc(-c2ccccc2)o1` [Compound 1057, N,N′-(bicyclo[1.1.1]pentane-1,3-diyl)bis(2-phenyl-1,3-oxazole-5-carboxamide)], the EC50 is less than 50 nM.

On to `O=C(NC12CC(NC(=O)c3cnc(-c4ccccc4)o3)(C1)C2)c1cnc(C(F)F)cn1` [Compound 1058, 5-(difluoromethyl)-N-{3-[(2-phenyl-1,3-oxazole-5-carbonyl)amino]bicyclo[1.1.1]pentan-1-yl}pyrazine-2-carboxamide], for which the EC50 was in the range of 50 to 250 nM.

For the compound `O=C(CO)Nc1cc(F)c(F)cc1C(=O)NC12CC(NC(=O)COc3ccc(Cl)c(F)c3)(C1)C2` [Compound 1059, N-{3-[2-(4-chloro-3-fluorophenoxy)acetamido]bicyclo[1.1.1]pentan-1-yl}-4,5-difluoro-2-(2-hydroxyacetamido)benzamide], the EC50 lay in the range of 50 to 250 nM.

For the compound `O=C(COc1ccc(Cl)c(F)c1)NC12CC(NC(=O)c3cc(F)c(F)cc3NCCO)(C1)C2` [Compound 1060, N-{3-[2-(4-chloro-3-fluorophenoxy)acetamido]bicyclo[1.1.1]pentan-1-yl}-4,5-difluoro-2-[(2-hydroxyethyl)amino]benzamide], the EC50 fell in the range of 250 to 1000 nM.

`COCC(=O)Nc1cc(F)c(F)cc1C(=O)NC12CC(NC(=O)COc3ccc(Cl)c(F)c3)(C1)C2` [Compound 1061, N-{3-[2-(4-chloro-3-fluorophenoxy)acetamido]bicyclo[1.1.1]pentan-1-yl}-4,5-difluoro-2-(2-methoxyacetamido)benzamide]: the EC50 was in the range of 250 to 1000 nM.

In the case of `Cc1nc(C(=O)NC23CCC(NC(=O)COc4ccc(Cl)c(F)c4)(CC2)[C@H](O)C3)n[nH]1` [Compound 1062, N-{(3R)-4-[2-(4-chloro-3-fluorophenoxy)acetamido]-3-hydroxybicyclo[2.2.2]octan-1-yl}-5-methyl-1H-1,2,4-triazole-3-carboxamide], the EC50 was in the range of 250 to 1000 nM.

Regarding `Cc1csc(C(=O)NC23CCC(NC(=O)COc4ccc(F)c(Cl)c4)(CC2)[C@@H](O)C3)n1` [Compound 1063, N-{(3S)-4-[2-(3-chloro-4-fluorophenoxy)acetamido]-3-hydroxybicyclo[2.2.2]octan-1-yl}-4-methyl-1,3-thiazole-2-carboxamide], the EC50 lay in the range of 250 to 1000 nM.
